Assay results taken from ChEMBL document CHEMBL5032495, “Discovery of Novel Tacrine-Pyrimidone Hybrids as Potent Dual AChE/GSK-3 Inhibitors for the Treatment of Alzheimer's Disease” (J Med Chem, 2021).
pIC50: −log10 of the molar value. Active and inactive are the calls of the source. The rule behind the calls is not given here.

Assays:
[1] = Drug concentration in ICR mouse plasma at 15 mg/kg, ip measured after 1 hr by UPLC-MS/MS analysis; format: ADME, organism-based
[2] = biological target: T1, Glycogen synthase kinase-3 beta (Homo sapiens, UniProt P49841); assay: Inhibition of GSK-3beta in glyceraldehyde-treated human SH-SY5Y cells assessed as reduction in phosphorylated Tau levels at S199 site measured after 24 hrs by ELISA
Target sequence in this assay (P49841 whole entry, looked up): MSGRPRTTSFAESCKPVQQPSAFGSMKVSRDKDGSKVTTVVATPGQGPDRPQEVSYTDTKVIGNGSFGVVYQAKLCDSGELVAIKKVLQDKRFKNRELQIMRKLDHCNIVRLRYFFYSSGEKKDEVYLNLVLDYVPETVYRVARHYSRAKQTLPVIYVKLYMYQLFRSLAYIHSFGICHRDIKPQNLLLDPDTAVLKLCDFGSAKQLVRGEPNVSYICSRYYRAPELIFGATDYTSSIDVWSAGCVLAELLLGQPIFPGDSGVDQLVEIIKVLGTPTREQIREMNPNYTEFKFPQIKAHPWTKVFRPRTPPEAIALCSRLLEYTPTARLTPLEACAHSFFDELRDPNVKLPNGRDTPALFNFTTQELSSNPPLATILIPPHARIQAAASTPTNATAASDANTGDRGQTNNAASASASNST

[3] = Drug concentration in ICR mouse brain at 15 mg/kg, ip measured after 1 hr by UPLC-MS/MS analysis; format: ADME, organism-based; settings: read-out: Drug uptake
[4] = Ratio of drug concentration in brain to plasma in ICR mouse at 15 mg/kg, ip measured after 0.5 hrs by UPLC-MS/MS analysis; format: ADME, organism-based
[5] = MRTlast in ICR mouse at 5 mg/kg, iv measured upto 24 hrs by UPLC-MS/MS analysis; format: ADME, organism-based; settings: in vivo
[6] = Drug concentration in ICR mouse plasma at 15 mg/kg, ip measured after 4 hrs by UPLC-MS/MS analysis; format: ADME, organism-based
SH-SY5Y [7] = assay: Neuroprotective activity against glyceraldehyde-induced neurotoxicity in human SH-SY5Y cells assessed as increase in cell viability at 0.5 to 5 uM incubated for 24 hrs by MTT assay; format: functional, cell-based; settings: dose 0.5-5 µM
[8] = Volume of distribution in ICR mouse at 5 mg/kg, iv measured upto 24 hrs by UPLC-MS/MS analysis; format: ADME, organism-based; settings: in vivo
[9] = Volume of distribution in ICR mouse at 15 mg/kg, ip measured upto 24 hrs by UPLC-MS/MS analysis; format: ADME, organism-based; settings: in vivo
[10] = AUClast in ICR mouse at 15 mg/kg, ip measured upto 24 hrs by UPLC-MS/MS analysis; format: ADME, organism-based; parameters: route intraperitoneal, dose 15 mg/kg, time <=24; settings: in vivo
[11] = Ratio of drug concentration in brain to plasma in ICR mouse at 15 mg/kg, ip measured after 1 hr by UPLC-MS/MS analysis; format: ADME, organism-based
[12] = Toxicity in ICR mouse assessed as emesis at 15 mg/kg, ip measured after 15 days; format: organism-based; settings: in vivo, 360 h, time 15 day
[13] = Cmax in ICR mouse at 15 mg/kg, ip measured upto 24 hrs by UPLC-MS/MS analysis; format: ADME, organism-based; parameters: route intraperitoneal, dose 15 mg/kg, time <=24; settings: in vivo
[14] = biological target: T1, Glycogen synthase kinase-3 beta; assay: Inhibition of GSK-3beta (unknown origin) at 1000 nM
Target sequence in this assay (P49841 whole entry, looked up): as above

[15] = Bioavailability in ICR mouse at 15 mg/kg, ip measured upto 24 hrs by UPLC-MS/MS analysis; format: ADME, organism-based; settings: in vivo
[16] = Drug concentration in ICR mouse brain at 15 mg/kg, ip measured after 2 hrs by UPLC-MS/MS analysis; format: ADME, organism-based; settings: read-out: Drug uptake
[17] = Ratio of drug concentration in brain to plasma in ICR mouse at 15 mg/kg, ip measured after 2 hrs by UPLC-MS/MS analysis; format: ADME, organism-based
[18] = biological target: Glycogen synthase kinase-3 alpha (Homo sapiens) (UniProt P49840); assay: Inhibition of GSK-3alpha (unknown origin) at 1000 nM
[19] = Half life in ICR mouse at 5 mg/kg, iv measured upto 24 hrs by UPLC-MS/MS analysis; format: ADME, organism-based; settings: in vivo
[20] = biological target: T1, Glycogen synthase kinase-3 beta; assay: Inhibition of GSK-3beta in glyceraldehyde-treated human SH-SY5Y cells assessed as reduction in phosphorylated Tau levels at S396 site measured after 24 hrs by ELISA
Target sequence in this assay (P49841 whole entry, looked up): as above

[21] = Tmax in ICR mouse at 15 mg/kg, ip measured upto 24 hrs by UPLC-MS/MS analysis; format: ADME, organism-based; settings: in vivo
[22] = AUClast in ICR mouse at 5 mg/kg, iv measured upto 24 hrs by UPLC-MS/MS analysis; format: ADME, organism-based; parameters: route intravenous, dose 5 mg/kg, time <=24; settings: in vivo
[23] = Ratio of drug concentration in brain to plasma in ICR mouse at 15 mg/kg, ip measured after 4 hrs by UPLC-MS/MS analysis; format: ADME, organism-based
Acetylcholinesterase = biological target: T2, Acetylcholinesterase (Mus musculus, UniProt P21836); assay: Inhibition of mouse AChE using acetylthiocholine iodide as substrate incubated for 20 mins by Ellman's method
T2 sequence (P21836 whole entry): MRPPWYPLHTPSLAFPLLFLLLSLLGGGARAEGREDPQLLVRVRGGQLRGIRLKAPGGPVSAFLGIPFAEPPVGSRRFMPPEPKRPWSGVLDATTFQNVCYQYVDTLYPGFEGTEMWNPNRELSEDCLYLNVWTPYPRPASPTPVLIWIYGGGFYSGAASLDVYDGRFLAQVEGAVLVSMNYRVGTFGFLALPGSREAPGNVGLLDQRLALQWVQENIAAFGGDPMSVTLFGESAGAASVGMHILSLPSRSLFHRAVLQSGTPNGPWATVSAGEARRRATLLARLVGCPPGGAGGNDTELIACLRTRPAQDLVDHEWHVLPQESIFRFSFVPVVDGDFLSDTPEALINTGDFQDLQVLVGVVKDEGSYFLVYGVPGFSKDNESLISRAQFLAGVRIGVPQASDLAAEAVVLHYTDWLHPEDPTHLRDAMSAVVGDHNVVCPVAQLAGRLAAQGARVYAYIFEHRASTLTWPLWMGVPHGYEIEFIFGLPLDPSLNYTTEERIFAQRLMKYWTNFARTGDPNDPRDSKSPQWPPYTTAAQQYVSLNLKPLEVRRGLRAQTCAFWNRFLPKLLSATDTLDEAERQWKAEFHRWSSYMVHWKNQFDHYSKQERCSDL

SH-SY5Y [24] = assay: Neuroprotective activity in human SH-SY5Y cells assessed as prevention of glyceraldehyde-induced neurite shortening at 0.5 to 5 uM incubated for 1 hr by confocal microsocopic analysis; format: functional, cell-based; settings: dose 0.5-5 µM
[25] = Apparent oral clearance in ICR mouse at 15 mg/kg measured upto 24 hrs by UPLC-MS/MS analysis; format: ADME, organism-based; settings: in vivo
[26] = Drug concentration in ICR mouse plasma at 15 mg/kg, ip measured after 2 hrs by UPLC-MS/MS analysis; format: ADME, organism-based
[27] = Toxicity in ICR mouse assessed as swimming motility impairment at 15 mg/kg, ip measured after 15 days; format: organism-based; settings: in vivo, 360 h, time 15 day
[28] = Drug concentration in ICR mouse brain at 15 mg/kg, ip measured after 4 hrs by UPLC-MS/MS analysis; format: ADME, organism-based; settings: read-out: Drug uptake
[29] = biological target: T1, Glycogen synthase kinase-3 beta
Target sequence in this assay (P49841 whole entry): as the sequence (P49841 whole entry, looked up) above
Description: Inhibition of human recombinant GSK-3beta using prephosphorylated polypeptide as substrate incubated for 30 mins in presence of ATP by Kinase-Glo luminescence assay

[30] = Drug concentration in ICR mouse brain at 15 mg/kg, ip measured after 0.5 hrs by UPLC-MS/MS analysis; format: ADME, organism-based; settings: read-out: Drug uptake
[31] = Tmax in ICR mouse at 5 mg/kg, iv measured upto 24 hrs by UPLC-MS/MS analysis; format: ADME, organism-based; settings: in vivo
[32] = Toxicity in ICR mouse assessed as diarrhea at 15 mg/kg, ip measured after 15 days; format: organism-based; settings: in vivo, 360 h, time 15 day
[33] = Apparent oral clearance in ICR mouse at 5 mg/kg measured upto 24 hrs by UPLC-MS/MS analysis; format: ADME, organism-based; settings: in vivo
[34] = Cmax in ICR mouse at 5 mg/kg, iv measured upto 24 hrs by UPLC-MS/MS analysis; format: ADME, organism-based; parameters: route intravenous, dose 5 mg/kg, time <=24; settings: in vivo
[35] = MRTlast in ICR mouse at 15 mg/kg, ip measured upto 24 hrs by UPLC-MS/MS analysis; format: ADME, organism-based; settings: in vivo
[36] = Half life in ICR mouse at 15 mg/kg, ip measured upto 24 hrs by UPLC-MS/MS analysis; format: ADME, organism-based; settings: in vivo
[37] = Drug concentration in ICR mouse plasma at 15 mg/kg, ip measured after 0.5 hrs by UPLC-MS/MS analysis; format: ADME, organism-based

Sequence of Glycogen synthase kinase-3 alpha (Homo sapiens) (P49840 2-483 limits assumed): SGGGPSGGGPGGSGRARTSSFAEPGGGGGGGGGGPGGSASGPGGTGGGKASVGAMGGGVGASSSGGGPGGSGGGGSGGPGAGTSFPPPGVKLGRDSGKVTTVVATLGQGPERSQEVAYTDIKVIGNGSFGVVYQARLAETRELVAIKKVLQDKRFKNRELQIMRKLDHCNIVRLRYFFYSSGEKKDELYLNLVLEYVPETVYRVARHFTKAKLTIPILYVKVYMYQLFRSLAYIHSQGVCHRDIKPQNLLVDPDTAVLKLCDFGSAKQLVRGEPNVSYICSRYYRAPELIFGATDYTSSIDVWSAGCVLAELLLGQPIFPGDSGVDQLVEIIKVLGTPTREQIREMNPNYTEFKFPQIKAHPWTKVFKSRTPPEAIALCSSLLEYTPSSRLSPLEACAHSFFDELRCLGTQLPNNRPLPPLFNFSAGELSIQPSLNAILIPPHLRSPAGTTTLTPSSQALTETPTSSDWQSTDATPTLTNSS

In the case of `Cn1c(NCCCCCCCNc2c3c(nc4cc(Cl)ccc24)CCCC3)nc(-c2ccncc2F)cc1=O`, the concentration at 1 h [1] was 76.8 ng/mL, the inhibition [2] was “Dose-Dependent Effect” and the concentration at 1 h [3] was 11.1 ng/g. It also gave a Kp at 0.5 h [4] of 0.028, an MRT last at 24 h [5] of 183 min and a concentration at 4 h [6] of 3.47 ng/mL. For the same compound, the Activity (SH-SY5Y [7]) was “Active”, the Vd [8] was 16.4 L/kg and the Vd [9] was 14.14 L/kg. The AUC(0-t) at 24 h [10] was 1660 ng·h/mL, the Kp at 1 h [11] was 0.148 and the Activity [12] was “Non-Toxic”. For the same compound, the Cmax [13] was 1870 ng/mL, the inhibition [14] was “Active” and the bioavailability [15] was 35.3%. For the same compound, the concentration at 2 h [16] was 12.2 ng/g, the Kp at 2 h [17] was 0.522 and the inhibition [18] was “Active”. The half-life [19] was 219 min, the inhibition [20] was “Dose-Dependent Effect” and the Tmax [21] was 8.34 min. It also gave an AUC(0-t) at 24 h [22] of 1560 ng·h/mL, a Kp at 4 h [23] of 1.92 and a pIC50 (Acetylcholinesterase) of 4.29. For the same compound, the Activity (SH-SY5Y [24]) was “Dose-Dependent Effect”, the CL/F [25] was 0.152 mL/min/kg and the concentration at 2 h [26] was 26.8 ng/mL. The Activity [27] was “Non-Toxic”, the concentration at 4 h [28] was 5.99 ng/g and the pIC50 [29] was 4.05. The concentration at 0.5 h [30] was 23.6 ng/g, the Tmax [31] was 1.98 min and the Activity [32] was “Non-Toxic”. For the same compound, the CL/F [33] was 0.0513 mL/min/kg, the Cmax [34] was 2810 ng/mL and the MRT last at 24 h [35] was 46.8 min. The half-life [36] was 69 min and the concentration at 0.5 h [37] was 866 ng/mL.
